US12371428B2 (Exelixis, Inc., priority 2019, dated 2025)
Where a name gives a salt, the structure may show the parent alone.

Tests used:
[1] = target: Human KDR (residues 790-1356) (Homo sapiens (Human), UniProt P35968); assay: Human KDR kinase assay, HTRF KinEase (Example B-2); assay type: biochemical; settings: protocol of Example B-2
Procedure, shortened: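 Human KDR residues 790-1356 (0.1 ng/well) in buffer with 5 mM MgCl2, 1 mM MnCl2, 1 mM DTT, biotinylated peptide substrate, ATP at Km (4.0 μM), 3% DMSO, 10 compound concentrations; 40 min, room temperature. EDTA stop, streptavidin-XL665/Eu-TK antibody HTRF read 665/620 nm; 4-parameter IC50.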

[2] = target: Human MER (residues 528-999) (Homo sapiens (Human), UniProt Q12866); assay: Human Mer kinase assay, HTRF KinEase (Example C-2); assay type: biochemical; settings: protocol of Example C-2
Chain of Human MER (residues 528-999) (Q12866 528-999): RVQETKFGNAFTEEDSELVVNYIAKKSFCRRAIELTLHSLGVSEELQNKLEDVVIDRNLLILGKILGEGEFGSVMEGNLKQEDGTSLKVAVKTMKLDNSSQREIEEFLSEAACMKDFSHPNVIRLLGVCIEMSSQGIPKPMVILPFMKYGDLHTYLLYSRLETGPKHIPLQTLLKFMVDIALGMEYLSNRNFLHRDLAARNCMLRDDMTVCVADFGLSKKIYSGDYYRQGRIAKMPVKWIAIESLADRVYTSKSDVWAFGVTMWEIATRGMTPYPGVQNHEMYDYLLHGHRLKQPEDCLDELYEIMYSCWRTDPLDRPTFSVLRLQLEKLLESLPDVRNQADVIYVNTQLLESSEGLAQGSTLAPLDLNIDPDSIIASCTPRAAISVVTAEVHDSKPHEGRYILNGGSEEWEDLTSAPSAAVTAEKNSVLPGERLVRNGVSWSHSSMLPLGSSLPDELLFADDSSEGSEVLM
Procedure, shortened: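 Recombinant MER 528-999 (1 ng/well) in buffer with 5 mM MgCl2 and 1 mM DTT was reacted with biotinylated peptide and ATP at Km (40 μM) for 60 min at room temperature. EDTA stop with SA-XL665 and Eu3+ TK antibody, then 665/620 nm HTRF read; IC50 from 4-parameter fit.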

[3] = target: KDR (phospho-KDR, VEGF165-stimulated HUVEC cells) (Homo sapiens (Human), UniProt P35968); assay: KDR autophosphorylation ELISA in HUVEC cells (Example G); assay type: cell-based; settings: cellular activity; KDR autophosphorylation ELISA in HUVEC cells
Chain of KDR (phospho-KDR, VEGF165-stimulated HUVEC cells) (P35968 20-1356): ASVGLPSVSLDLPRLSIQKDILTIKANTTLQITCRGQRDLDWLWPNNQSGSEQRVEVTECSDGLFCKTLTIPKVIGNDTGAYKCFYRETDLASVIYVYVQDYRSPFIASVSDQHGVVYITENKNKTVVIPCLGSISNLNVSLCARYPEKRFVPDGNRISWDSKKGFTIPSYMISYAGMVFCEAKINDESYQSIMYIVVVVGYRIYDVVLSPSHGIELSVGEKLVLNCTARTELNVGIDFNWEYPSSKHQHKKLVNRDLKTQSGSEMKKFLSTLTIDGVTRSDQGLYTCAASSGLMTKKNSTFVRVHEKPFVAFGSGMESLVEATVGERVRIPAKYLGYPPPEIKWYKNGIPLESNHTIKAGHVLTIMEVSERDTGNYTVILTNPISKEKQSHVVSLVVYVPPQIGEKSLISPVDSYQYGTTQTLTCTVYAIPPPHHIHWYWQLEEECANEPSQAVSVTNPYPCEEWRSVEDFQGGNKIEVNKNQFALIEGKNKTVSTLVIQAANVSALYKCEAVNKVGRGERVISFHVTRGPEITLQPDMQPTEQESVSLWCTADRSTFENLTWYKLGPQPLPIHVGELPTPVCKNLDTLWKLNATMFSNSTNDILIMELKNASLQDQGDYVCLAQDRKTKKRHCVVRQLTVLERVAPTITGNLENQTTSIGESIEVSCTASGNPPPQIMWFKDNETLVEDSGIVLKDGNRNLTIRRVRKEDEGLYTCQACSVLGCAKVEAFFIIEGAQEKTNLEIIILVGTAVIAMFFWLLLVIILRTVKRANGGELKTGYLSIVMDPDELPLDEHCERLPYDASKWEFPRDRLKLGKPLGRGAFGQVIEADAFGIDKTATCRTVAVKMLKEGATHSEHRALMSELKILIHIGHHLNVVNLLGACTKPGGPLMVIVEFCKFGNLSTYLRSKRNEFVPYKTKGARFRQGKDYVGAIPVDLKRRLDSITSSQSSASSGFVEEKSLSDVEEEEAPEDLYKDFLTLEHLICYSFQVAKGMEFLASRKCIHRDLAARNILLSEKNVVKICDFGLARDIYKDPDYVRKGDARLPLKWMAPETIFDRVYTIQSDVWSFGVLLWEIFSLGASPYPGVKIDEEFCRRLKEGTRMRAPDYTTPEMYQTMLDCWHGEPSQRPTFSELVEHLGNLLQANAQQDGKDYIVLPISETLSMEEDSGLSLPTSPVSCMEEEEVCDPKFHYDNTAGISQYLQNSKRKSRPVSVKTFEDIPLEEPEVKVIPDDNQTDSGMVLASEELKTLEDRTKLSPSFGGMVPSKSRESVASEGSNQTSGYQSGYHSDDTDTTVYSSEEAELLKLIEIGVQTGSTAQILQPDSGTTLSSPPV
Procedure, shortened: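 IC50 values derive from nonlinear curve fitting of phospho-KDR levels measured by ELISA and interpolated from a phosphoprotein standard. Beforehand, starved HUVECs received compound (0.3% DMSO vehicle) for one hour and were activated with VEGF165 at 100 ng/mL for 5 min.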

[4] = target: Mer (phospho-Mer, MERTK-transfected 293A cells) (Homo sapiens (Human), UniProt Q12866); assay: Mer autophosphorylation ELISA in transient transfected 293A cells (Example H); assay type: cell-based; settings: cellular activity; Mer autophosphorylation ELISA in transient transfected 293A cells
Chain of Mer (phospho-Mer, MERTK-transfected 293A cells) (Q12866 21-999): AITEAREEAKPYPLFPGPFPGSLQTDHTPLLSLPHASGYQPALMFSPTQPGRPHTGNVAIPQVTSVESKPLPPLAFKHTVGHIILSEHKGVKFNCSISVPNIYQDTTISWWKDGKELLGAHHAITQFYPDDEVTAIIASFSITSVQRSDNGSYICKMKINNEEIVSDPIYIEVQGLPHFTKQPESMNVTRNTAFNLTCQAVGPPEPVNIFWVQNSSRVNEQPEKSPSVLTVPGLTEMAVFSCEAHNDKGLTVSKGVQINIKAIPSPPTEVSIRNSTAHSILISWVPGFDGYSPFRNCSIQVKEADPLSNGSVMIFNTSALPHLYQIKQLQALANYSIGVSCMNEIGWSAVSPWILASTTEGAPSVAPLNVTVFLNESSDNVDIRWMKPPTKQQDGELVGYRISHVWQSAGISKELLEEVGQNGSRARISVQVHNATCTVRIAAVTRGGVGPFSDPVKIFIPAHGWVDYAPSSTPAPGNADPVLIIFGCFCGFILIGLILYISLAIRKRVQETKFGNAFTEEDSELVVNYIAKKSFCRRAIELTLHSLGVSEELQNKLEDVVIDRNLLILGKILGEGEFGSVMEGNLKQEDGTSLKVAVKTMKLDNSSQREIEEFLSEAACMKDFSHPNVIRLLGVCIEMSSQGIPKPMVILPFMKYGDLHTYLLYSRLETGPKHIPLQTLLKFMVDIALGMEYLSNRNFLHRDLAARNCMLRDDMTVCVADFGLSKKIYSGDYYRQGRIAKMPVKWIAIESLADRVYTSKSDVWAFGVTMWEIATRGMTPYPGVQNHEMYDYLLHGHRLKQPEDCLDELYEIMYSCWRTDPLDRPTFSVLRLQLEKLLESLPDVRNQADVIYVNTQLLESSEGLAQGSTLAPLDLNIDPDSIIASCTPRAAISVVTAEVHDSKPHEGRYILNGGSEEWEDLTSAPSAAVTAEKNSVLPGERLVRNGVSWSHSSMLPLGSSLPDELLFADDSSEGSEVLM
Procedure, shortened: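 293A cells transiently transfected with human MERTK were treated 1 h in serum-free medium with an 8-point compound dilution (0.3% DMSO final). Lysates were assayed by phospho-Mer sandwich ELISA against a phospho-Mer standard; IC50 came from a 4-parameter logistic fit, normalised to DMSO (100%) and reference-inhibitor (0%) controls.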

Chain of Human KDR (residues 790-1356) (P35968 790-1356): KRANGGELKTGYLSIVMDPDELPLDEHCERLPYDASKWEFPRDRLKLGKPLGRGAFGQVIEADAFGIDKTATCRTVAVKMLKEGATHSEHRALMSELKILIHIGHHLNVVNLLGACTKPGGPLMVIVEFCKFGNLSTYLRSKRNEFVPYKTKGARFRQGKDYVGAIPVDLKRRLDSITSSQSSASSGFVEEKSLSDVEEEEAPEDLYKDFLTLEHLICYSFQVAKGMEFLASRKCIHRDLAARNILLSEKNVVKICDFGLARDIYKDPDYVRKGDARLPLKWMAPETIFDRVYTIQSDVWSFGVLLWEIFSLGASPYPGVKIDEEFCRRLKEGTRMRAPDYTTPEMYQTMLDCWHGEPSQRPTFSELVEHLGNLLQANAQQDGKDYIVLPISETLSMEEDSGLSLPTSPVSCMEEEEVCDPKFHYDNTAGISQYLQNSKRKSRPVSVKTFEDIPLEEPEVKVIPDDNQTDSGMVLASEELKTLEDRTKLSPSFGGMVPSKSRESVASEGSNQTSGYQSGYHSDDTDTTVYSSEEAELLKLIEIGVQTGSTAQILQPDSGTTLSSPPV

Structure (SMILES)	IC50 [1]	IC50 [2]	IC50 [3]	IC50 [4]
Cc1nc(C)c(-c2ccc(F)cc2)c(O)c1C(=O)Nc1ccc(Oc2ccnc3cc(C(C)C)cnc23)cc1 [Compound 598, 5-(4-Fluorophenyl)-4-hydroxy-2,6-dimethyl-N-[4-[(7-propan-2-yl-1,5-naphthyridin-4-yl)oxy]phenyl]pyridine-3-carboxamide]	0.1 to 0.3 µM	< 0.1 µM	< 0.1 µM	< 0.1 µM
Cc1ncc(C(=O)Nc2ccc(Oc3ccnc4cc(-c5cnn(C(F)F)c5)cnc34)c(F)c2)c(O)c1-c1ccc(F)cc1 [Compound 610, N-[4-[[7-[1-(Difluoromethyl)pyrazol-4-yl]-1,5-naphthyridin-4-yl]oxy]-3-fluorophenyl]-5-(4-fluorophenyl)-4-hydroxy-6-methylpyridine-3-carboxamide hydrochloride]	0.1 to 0.3 µM	< 0.1 µM	< 0.1 µM	< 0.1 µM
Cc1ncc(C(=O)Nc2ccc(Oc3ccnc4cc(-c5cnn(C(F)F)c5)cnc34)cc2)c(O)c1-c1ccc(F)cc1 [Compound 611, N-[4-[[7-[1-(Difluoromethyl)pyrazol-4-yl]-1,5-naphthyridin-4-yl]oxy]phenyl]-5-(4-fluorophenyl)-4-hydroxy-6-methylpyridine-3-carboxamide]	< 0.1 µM	< 0.1 µM	< 0.1 µM	< 0.1 µM
Cc1nc2c(Oc3ccc(NC(=O)c4cn(C(C)C)c(C)c(-c5ccc(F)cc5)c4=O)cc3)ccnc2cc1-c1cnn(C(F)F)c1 [Compound 612, N-[4-[[7-[1-(Difluoromethyl)pyrazol-4-yl]-6-methyl-1,5-naphthyridin-4-yl]oxy]phenyl]-5-(4-fluorophenyl)-6-methyl-4-oxo-1-propan-2-ylpyridine-3-carboxamide hydrochloride]	> 0.3 µM	< 0.1 µM	> 0.3 µM	< 0.1 µM
Cc1nc2c(Oc3ccc(NC(=O)c4cn(C(C)C)c(C)c(-c5ccc(F)cc5)c4=O)cc3)ccnc2cc1-c1cccnc1 [Compound 613, 5-(4-Fluorophenyl)-6-methyl-N-[4-[(6-methyl-7-pyridin-3-yl-1,5-naphthyridin-4-yl)oxy]phenyl]-4-oxo-1-propan-2-ylpyridine-3-carboxamide hydrochloride]	> 0.3 µM	< 0.1 µM	> 0.3 µM	< 0.1 µM
Cc1nc2c(Oc3ccc(NC(=O)c4cn(C(C)C)c(C)c(-c5ccc(F)cc5)c4=O)cc3F)ccnc2cc1-c1cnn(C(F)F)c1 [Compound 614, N-[4-[[7-[1-(Difluoromethyl)pyrazol-4-yl]-6-methyl-1,5-naphthyridin-4-yl]oxy]-3-fluorophenyl]-5-(4-fluorophenyl)-6-methyl-4-oxo-1-propan-2-ylpyridine-3-carboxamide hydrochloride]	> 0.3 µM	< 0.1 µM	> 0.3 µM	< 0.1 µM
Cc1nc2c(Oc3ccc(NC(=O)c4cnc(C)c(-c5ccc(F)cc5)c4O)cc3F)ccnc2cc1-c1cnn(C(F)F)c1 [Compound 615, N-[4-[[7-[1-(Difluoromethyl)pyrazol-4-yl]-6-methyl-1,5-naphthyridin-4-yl]oxy]-3-fluorophenyl]-5-(4-fluorophenyl)-4-hydroxy-6-methylpyridine-3-carboxamide hydrochloride]	< 0.1 µM	< 0.1 µM	< 0.1 µM	< 0.1 µM
Cc1nc2c(Oc3ccc(NC(=O)c4cnc(C)c(-c5ccc(F)cc5)c4O)cc3)ccnc2cc1-c1cccnc1 [Compound 616, 5-(4-Fluorophenyl)-4-hydroxy-6-methyl-N-[4-[(6-methyl-7-pyridin-3-yl-1,5-naphthyridin-4-yl)oxy]phenyl]pyridine-3-carboxamide hydrochloride]	> 0.3 µM	< 0.1 µM	< 0.1 µM	0.1 to 0.3 µM
Cc1nc2c(Oc3ccc(NC(=O)c4cnc(C)c(-c5ccc(F)cc5)c4O)cc3)ccnc2cc1-c1cnn(C(F)F)c1 [Compound 617, N-[4-[[7-[1-(Difluoromethyl)pyrazol-4-yl]-6-methyl-1,5-naphthyridin-4-yl]oxy]phenyl]-5-(4-fluorophenyl)-4-hydroxy-6-methylpyridine-3-carboxamide hydrochloride]	0.1 to 0.3 µM	< 0.1 µM	< 0.1 µM	< 0.1 µM
Cc1nc2c(Oc3ccc(NC(=O)c4cnc(C)c(-c5ccc(F)cc5)c4O)cc3F)ccnc2cc1-c1cccnc1 [Compound 618, N-[3-Fluoro-4-[(6-methyl-7-pyridin-3-yl-1,5-naphthyridin-4-yl)oxy]phenyl]-5-(4-fluorophenyl)-4-hydroxy-6-methylpyridine-3-carboxamide hydrochloride]	0.1 to 0.3 µM	< 0.1 µM	< 0.1 µM	< 0.1 µM
COc1cc2nccc(Oc3ccc(NC(=O)c4cn(CCO)c(C)c(-c5ccc(F)cc5)c4=O)cc3F)c2nc1OC [Compound 619, N-[4-[(6,7-Dimethoxy-1,5-naphthyridin-4-yl)oxy]-3-fluorophenyl]-5-(4-fluorophenyl)-1-(2-hydroxyethyl)-6-methyl-4-oxopyridine-3-carboxamide]	> 0.3 µM	< 0.1 µM	< 0.1 µM	< 0.1 µM
Cc1nc2c(Oc3ccc(NC(=O)c4cn(C(C)C)c(C)c(-c5ccc(F)cc5)c4=O)cc3F)ccnc2cc1-c1cccnc1 [Compound 620, N-[3-Fluoro-4-[(6-methyl-7-pyridin-3-yl-1,5-naphthyridin-4-yl)oxy]phenyl]-5-(4-fluorophenyl)-6-methyl-4-oxo-1-propan-2-ylpyridine-3-carboxamide]	> 0.3 µM	< 0.1 µM	> 0.3 µM	< 0.1 µM
COc1cc2ncnc(Oc3ccc(NC(=O)c4cn(C(C)C)cc(-c5ccc(F)cc5)c4=O)cc3F)c2nc1OC [Compound 636, N-[4-(6,7-dimethoxypyrido[3,2-d]pyrimidin-4-yl)oxy-3-fluorophenyl]-5-(4-fluorophenyl)-4-oxo-1-propan-2-ylpyridine-3-carboxamide]	< 0.1 µM	< 0.1 µM	> 0.3 µM	< 0.1 µM
COc1cc2ncnc(Oc3ccc(NC(=O)c4cn(-c5cnn(C)c5)cc(-c5ccc(F)cc5)c4=O)cc3F)c2nc1OC [Compound 637, N-[4-(6,7-dimethoxyprido[3,2-d]pyrimidin-4-yl)oxy-3-fluorophenyl]-5-(4-fluorophenyl)-1-(1-methylpyrazol-4-yl)-4-oxopyridine-3-carboxamide]	> 0.3 µM	< 0.1 µM	> 0.3 µM	< 0.1 µM
COc1cc2c(Oc3ccc(NC(=O)c4cnc(C)c(-c5ccc(F)cc5)c4O)cc3F)ccnc2cn1 [Compound 639, N-[3-fluoro-4-[(6-methoxy-1,7-naphthyridin-4-yl)oxy]phenyl]-5-(4-fluorophenyl)-4-hydroxy-6-methylpyridine-3-carboxamide]	> 0.3 µM	< 0.1 µM	< 0.1 µM	< 0.1 µM
COc1cc2c(Oc3ccc(NC(=O)c4cn(C5CC5)c(C)c(-c5ccc(F)cc5)c4=O)cc3F)ccnc2cn1 [Compound 640, 1-cyclopropyl-N-[3-fluoro-4-[(6-methoxy-1,7-naphthyridin-4-yl)oxy]phenyl]-5-(4-fluorophenyl)-6-methyl-4-oxopyridine-3-carboxamide]	> 0.3 µM	< 0.1 µM	> 0.3 µM	< 0.1 µM
